Where two headings read alike, the source gives them in different places. Square brackets hold non-standard residues; d marks the D form. Peptide text beside a SMILES is read from it. * marks the point of attachment. Hyp = O=C(O)[C@@H]1C[C@@H](O)CN1; X8 = O=C1CC(*)C(=O)N1
What was measured:
[1] = target: T1, bradykinin receptor of the B2 class (rat uterus) (Rattus norvegicus, UniProt P25023); assay: Rat uterus (RU) in vitro, antagonism of bradykinin
T1 construct: concentration effect curves to bradykinin (BK) on rat uterus in vitro; from tissue; host or cells: rat uterus
T1 sequence (P25023 1-396): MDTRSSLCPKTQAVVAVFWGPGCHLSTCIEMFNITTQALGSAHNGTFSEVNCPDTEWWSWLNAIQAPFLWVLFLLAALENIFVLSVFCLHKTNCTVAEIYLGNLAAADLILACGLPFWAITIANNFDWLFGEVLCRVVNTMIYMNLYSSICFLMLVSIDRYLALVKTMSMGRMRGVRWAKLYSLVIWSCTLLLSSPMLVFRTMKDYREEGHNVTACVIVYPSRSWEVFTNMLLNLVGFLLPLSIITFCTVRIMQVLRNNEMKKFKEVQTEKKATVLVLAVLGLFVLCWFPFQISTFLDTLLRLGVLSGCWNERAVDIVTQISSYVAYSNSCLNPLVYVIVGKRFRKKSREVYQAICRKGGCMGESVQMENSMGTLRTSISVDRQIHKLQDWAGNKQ
Experimental: Thus in vitro studies were performed on standard assay systems, namely, guinea-pig ileum (GPI), rat uterus (RU) and rabbit jugular vein (RJV). […] The PA2 can be defined as the negative logarithm of the molar concentration of the antagonist in the presence of which the potency of the agonist is reduced two-fold, i.e. twice the amount of agonist is required to produce a given response in the presence of, than in the absence of, the antagonist. A high potency of antagonism is indicated by a high PA2 value, i.e., a low concentration of antagonist is effective.
The percentage recovery (% Rec) was also determined for compounds with respect to each assay.
With respect to duration of activity, it is noted that after exposure to the highest concentration of antagonist, each tissue was washed extensively and then assessed for recovery from the antagonist effect.
Potency in the rat uterus assay was assessed as described above and PA2 values determined.

[2] = target: T2, bradykinin receptor of the B2 class (guinea-pig ileum) (Cavia porcellus, UniProt O70526)
T2 sequence (O70526 1-372): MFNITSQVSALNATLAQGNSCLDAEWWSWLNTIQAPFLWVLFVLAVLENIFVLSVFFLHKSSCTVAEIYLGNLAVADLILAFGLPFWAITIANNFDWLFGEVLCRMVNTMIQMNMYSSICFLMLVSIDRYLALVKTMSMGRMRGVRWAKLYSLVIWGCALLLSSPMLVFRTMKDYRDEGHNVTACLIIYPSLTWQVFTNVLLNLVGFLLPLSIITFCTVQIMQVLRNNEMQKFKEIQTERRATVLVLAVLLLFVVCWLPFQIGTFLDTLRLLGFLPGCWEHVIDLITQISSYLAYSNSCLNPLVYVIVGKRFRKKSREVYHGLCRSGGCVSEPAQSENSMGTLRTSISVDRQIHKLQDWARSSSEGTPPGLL

[3] = Table C, rat uterus, read-out: pA2 DIMER (converted)
[4] = Table E, read-out: RAT UTERUS pA2 (converted)

Structure (SMILES)	% REC DIMER ([1]; Table C, rat uterus) [%]	Kb [1, 3] [µM]	Kb [2] [µM]	RAT UTERUS % RECOVERED ([1]; Table E) [%]	Kb [1, 4] [µM]	pA2 MONOMER ([1]; Table C, rat uterus, P.A. = Partial Agonist)
CC(C)C[C@H](NC(=O)[C@@H](Cc1ccccc1)NC(=O)[C@H](CO)NC(=O)[C@H](Cc1ccccc1)NC(=O)CNC(=O)[C@@H]1C[C@@H](O)CN1C(=O)[C@H](CSC1CC(=O)N(CCCCCCN2C(=O)CC(SC[C@H](NC(=O)[C@H](CCCNC(=N)N)NC(=O)[C@H](N)CCCNC(=N)N)C(=O)N3C[C@H](O)C[C@H]3C(=O)NCC(=O)N[C@@H](Cc3ccccc3)C(=O)N[C@@H](CO)C(=O)N[C@H](Cc3ccccc3)C(=O)N[C@@H](CC(C)C)C(=O)N[C@@H](CCCNC(=N)N)C(=O)O)C2=O)C1=O)NC(=O)[C@H](CCCNC(=N)N)NC(=O)[C@H](N)CCCNC(=N)N)C(=O)N[C@@H](CCCNC(=N)N)C(=O)O (stereo partly shown) [CP-0154] (HELM PEPTIDE1{[dR].R.C.[Hyp].G.F.S.[dF].L.R}|PEPTIDE2{[dR].R.C.[Hyp].G.F.S.[dF].L.R}|CHEM1{[O=C1CC([*:1])C(=O)N1CCCCCCN1C(=O)CC([*:2])C1=O]}$PEPTIDE1,CHEM1,3:R3-1:R1|PEPTIDE2,CHEM1,3:R3-1:R2$$$V2.0)	90	0.0631	~0.0251			
CC(C)C[C@H](NC(=O)[C@@H](Cc1ccccc1)NC(=O)[C@H](CSC1CC(=O)N(c2ccc(N3C(=O)CC(SC[C@H](NC(=O)[C@H](Cc4ccccc4)NC(=O)CNC(=O)[C@@H]4C[C@@H](O)CN4C(=O)[C@@H]4CCCN4C(=O)[C@H](CCCNC(=N)N)NC(=O)[C@H](N)CCCNC(=N)N)C(=O)N[C@H](Cc4ccccc4)C(=O)N[C@@H](CC(C)C)C(=O)N[C@@H](CCCNC(=N)N)C(=O)O)C3=O)cc2)C1=O)NC(=O)[C@H](Cc1ccccc1)NC(=O)CNC(=O)[C@@H]1C[C@@H](O)CN1C(=O)[C@@H]1CCCN1C(=O)[C@H](CCCNC(=N)N)NC(=O)[C@H](N)CCCNC(=N)N)C(=O)N[C@@H](CCCNC(=N)N)C(=O)O (stereo partly shown) [CP-0170] (HELM PEPTIDE1{[dR].R.P.[Hyp].G.F.C.[dF].L.R}|PEPTIDE2{[dR].R.P.[Hyp].G.F.C.[dF].L.R}|CHEM1{[O=C1CC([*:1])C(=O)N1c1ccc(N2C(=O)CC([*:2])C2=O)cc1]}$PEPTIDE1,CHEM1,7:R3-1:R1|PEPTIDE2,CHEM1,7:R3-1:R2$$$V2.0)			~0.501	100	0.1	
CC(C)C[C@H](NC(=O)[C@@H](Cc1ccccc1)NC(=O)[C@H](CSSC[C@H](NC(=O)[C@H](Cc1ccccc1)NC(=O)CNC(=O)[C@@H]1C[C@@H](O)CN1C(=O)[C@@H]1CCCN1C(=O)[C@H](CCCNC(=N)N)NC(=O)[C@H](N)CCCNC(=N)N)C(=O)N[C@H](Cc1ccccc1)C(=O)N[C@@H](CC(C)C)C(=O)N[C@@H](CCCNC(=N)N)C(=O)O)NC(=O)[C@H](Cc1ccccc1)NC(=O)CNC(=O)[C@@H]1C[C@@H](O)CN1C(=O)[C@@H]1CCCN1C(=O)[C@H](CCCNC(=N)N)NC(=O)[C@H](N)CCCNC(=N)N)C(=O)N[C@@H](CCCNC(=N)N)C(=O)O [CP-0138] (HELM PEPTIDE1{[dR].R.P.[Hyp].G.F.C.[dF].L.R}|PEPTIDE2{[dR].R.P.[Hyp].G.F.C.[dF].L.R}$PEPTIDE1,PEPTIDE2,7:R3-7:R3$$$V2.0)			~0.631	100	0.0398	
CC(C)C[C@H](NC(=O)[C@@H](Cc1ccccc1)NC(=O)[C@H](CSC1CC(=O)N(CCN(CCN2C(=O)CC(SC[C@H](NC(=O)[C@H](Cc3ccccc3)NC(=O)CNC(=O)[C@@H]3C[C@@H](O)CN3C(=O)[C@@H]3CCCN3C(=O)[C@H](CCCNC(=N)N)NC(=O)[C@H](N)CCCNC(=N)N)C(=O)N[C@H](Cc3ccccc3)C(=O)N[C@@H](CC(C)C)C(=O)N[C@@H](CCCNC(=N)N)C(=O)O)C2=O)CCN2C(=O)CC(SC[C@H](NC(=O)[C@H](Cc3ccccc3)NC(=O)CNC(=O)[C@@H]3C[C@@H](O)CN3C(=O)[C@@H]3CCCN3C(=O)[C@H](CCCNC(=N)N)NC(=O)[C@H](N)CCCNC(=N)N)C(=O)N[C@H](Cc3ccccc3)C(=O)N[C@@H](CC(C)C)C(=O)N[C@@H](CCCNC(=N)N)C(=O)O)C2=O)C1=O)NC(=O)[C@H](Cc1ccccc1)NC(=O)CNC(=O)[C@@H]1C[C@@H](O)CN1C(=O)[C@@H]1CCCN1C(=O)[C@H](CCCNC(=N)N)NC(=O)[C@H](N)CCCNC(=N)N)C(=O)N[C@@H](CCCNC(=N)N)C(=O)O (stereo partly shown) [CP-0176] (HELM PEPTIDE1{[dR].R.P.[Hyp].G.F.C.[dF].L.R}|PEPTIDE2{[dR].R.P.[Hyp].G.F.C.[dF].L.R}|PEPTIDE3{[dR].R.P.[Hyp].G.F.C.[dF].L.R}|CHEM1{[O=C1CC([*:1])C(=O)N1CCN(CCN1C(=O)CC([*:2])C1=O)CCN1C(=O)CC([*:3])C1=O]}$PEPTIDE1,CHEM1,7:R3-1:R1|PEPTIDE2,CHEM1,7:R3-1:R2|PEPTIDE3,CHEM1,7:R3-1:R3$$$V2.0)			~0.1	50	0.00251	
CC(C)C[C@H](NC(=O)[C@@H](Cc1ccccc1)NC(=O)[C@H](CO)NC(=O)[C@H](Cc1ccccc1)NC(=O)CNC(=O)[C@@H]1C[C@@H](O)CN1C(=O)[C@@H]1CCCN1C(=O)[C@H](CCCNC(=N)N)NC(=O)[C@H](N)CSC1CC(=O)N(CCCCCCN2C(=O)CC(SC[C@@H](N)C(=O)N[C@@H](CCCNC(=N)N)C(=O)N3CCC[C@H]3C(=O)N3C[C@H](O)C[C@H]3C(=O)NCC(=O)N[C@@H](Cc3ccccc3)C(=O)N[C@@H](CO)C(=O)N[C@H](Cc3ccccc3)C(=O)N[C@@H](CC(C)C)C(=O)N[C@@H](CCCNC(=N)N)C(=O)O)C2=O)C1=O)C(=O)N[C@@H](CCCNC(=N)N)C(=O)O (stereo partly shown) [CP-0161] (HELM PEPTIDE1{[dC].R.P.[Hyp].G.F.S.[dF].L.R}|PEPTIDE2{[dC].R.P.[Hyp].G.F.S.[dF].L.R}|CHEM1{[O=C1CC([*:1])C(=O)N1CCCCCCN1C(=O)CC([*:2])C1=O]}$PEPTIDE1,CHEM1,1:R3-1:R1|PEPTIDE2,CHEM1,1:R3-1:R2$$$V2.0)	100	0.316	~0.501			
CC(C)C[C@H](NC(=O)[C@@H](Cc1ccccc1)NC(=O)[C@H](CO)NC(=O)[C@H](Cc1ccccc1)NC(=O)CNC(=O)[C@@H]1C[C@@H](O)CN1C(=O)[C@@H]1CCCN1C(=O)[C@H](CCCNC(=N)N)NC(=O)[C@@H](N)CSC1CC(=O)N(CCCCCCN2C(=O)CC(SC[C@H](N)C(=O)N[C@@H](CCCNC(=N)N)C(=O)N3CCC[C@H]3C(=O)N3C[C@H](O)C[C@H]3C(=O)NCC(=O)N[C@@H](Cc3ccccc3)C(=O)N[C@@H](CO)C(=O)N[C@H](Cc3ccccc3)C(=O)N[C@@H](CC(C)C)C(=O)N[C@@H](CCCNC(=N)N)C(=O)O)C2=O)C1=O)C(=O)N[C@@H](CCCNC(=N)N)C(=O)O (stereo partly shown) [CP-0152] (HELM PEPTIDE1{C.R.P.[Hyp].G.F.S.[dF].L.R}|PEPTIDE2{C.R.P.[Hyp].G.F.S.[dF].L.R}|CHEM1{[O=C1CC([*:1])C(=O)N1CCCCCCN1C(=O)CC([*:2])C1=O]}$PEPTIDE1,CHEM1,1:R3-1:R1|PEPTIDE2,CHEM1,1:R3-1:R2$$$V2.0)	50	0.0126	~0.316			
CC(C)C[C@H](NC(=O)[C@@H](Cc1ccccc1)NC(=O)[C@H](CO)NC(=O)[C@H](Cc1ccccc1)NC(=O)CNC(=O)[C@H](CS)NC(=O)[C@@H]1CCCN1C(=O)[C@H](CCCNC(=N)N)NC(=O)[C@H](N)CCCNC(=N)N)C(=O)N[C@@H](CCCNC(=N)N)C(=O)O [CP-0143] (HELM PEPTIDE1{[dR].R.P.C.G.F.S.[dF].L.R}$$$$V2.0)			~0.316			P.A.
CC(C)C[C@H](NC(=O)[C@@H](Cc1ccccc1)NC(=O)[C@H](CSC1CC(=O)NC1=O)NC(=O)[C@H](Cc1ccccc1)NC(=O)CNC(=O)[C@@H]1C[C@@H](O)CN1C(=O)[C@@H]1CCCN1C(=O)[C@H](CCCNC(=N)N)NC(=O)[C@H](N)CCCNC(=N)N)C(=O)N[C@@H](CCCNC(=N)N)C(=O)O (stereo partly shown) [CP-0139] (H-[dR]RP[Hyp]GFC(X8)[dF]LR-OH)			~0.0794			
CC(C)C[C@H](NC(=O)[C@@H](Cc1ccccc1)NC(=O)[C@H](CO)NC(=O)[C@H](Cc1ccccc1)NC(=O)CNC(=O)[C@@H]1C[C@@H](O)CN1C(=O)[C@@H]1CCCN1C(=O)[C@H](CS)NC(=O)[C@H](N)CCCNC(=N)N)C(=O)N[C@@H](CCCNC(=N)N)C(=O)O [CP-0141] (HELM PEPTIDE1{[dR].C.P.[Hyp].G.F.S.[dF].L.R}$$$$V2.0)			~1			

Reference: patent publication US5416191A, “Bradykinin antagonists” (Cortech, Inc., priority 1993, dated 1995)
